Tests used:
[1] = molecular target: T1, Mitogen-activated protein kinase 1 (Homo sapiens, UniProt P28482); test: Inhibition of ERK2 (unknown origin) using kinase substrate 8 at 100 nM incubated for 40 mins in presence of ATP by mobility shift assay
[2] = molecular target: Protein smoothened (Mus musculus) (UniProt P56726); test: Inhibition of SMO in mouse 3T3/HH FlashII-7 cells at 100 nM incubated for 36 hrs in presence of SHH by Gli-luciferase reporter assay; type: cell-based
[3] = Antiproliferative activity against human RBE cells overexpressing Hh/ERK pathway assessed as inhibition of cell growth incubated for 96 hrs by CCK8 assay; type: functional, cell-based
[4] = Antiproliferative activity against human RBE cells overexpressing Hh/ERK pathway assessed as inhibition of cell growth incubated for 96 hrs by CCK8 assay relative to SCH772984; type: functional
[5] = molecular target: Protein smoothened (Mus musculus, UniProt P56726); test: Inhibition of SMO in mouse 3T3/HH FlashII-7 cells incubated for 36 hrs in presence of SHH by Gli-luciferase reporter assay; type: cell-based
[6] = molecular target: T1, Mitogen-activated protein kinase 1; test: Inhibition of ERK2 (unknown origin) using kinase substrate 8 incubated for 40 mins in presence of ATP by mobility shift assay

Protein smoothened, sequence (P56726 whole entry): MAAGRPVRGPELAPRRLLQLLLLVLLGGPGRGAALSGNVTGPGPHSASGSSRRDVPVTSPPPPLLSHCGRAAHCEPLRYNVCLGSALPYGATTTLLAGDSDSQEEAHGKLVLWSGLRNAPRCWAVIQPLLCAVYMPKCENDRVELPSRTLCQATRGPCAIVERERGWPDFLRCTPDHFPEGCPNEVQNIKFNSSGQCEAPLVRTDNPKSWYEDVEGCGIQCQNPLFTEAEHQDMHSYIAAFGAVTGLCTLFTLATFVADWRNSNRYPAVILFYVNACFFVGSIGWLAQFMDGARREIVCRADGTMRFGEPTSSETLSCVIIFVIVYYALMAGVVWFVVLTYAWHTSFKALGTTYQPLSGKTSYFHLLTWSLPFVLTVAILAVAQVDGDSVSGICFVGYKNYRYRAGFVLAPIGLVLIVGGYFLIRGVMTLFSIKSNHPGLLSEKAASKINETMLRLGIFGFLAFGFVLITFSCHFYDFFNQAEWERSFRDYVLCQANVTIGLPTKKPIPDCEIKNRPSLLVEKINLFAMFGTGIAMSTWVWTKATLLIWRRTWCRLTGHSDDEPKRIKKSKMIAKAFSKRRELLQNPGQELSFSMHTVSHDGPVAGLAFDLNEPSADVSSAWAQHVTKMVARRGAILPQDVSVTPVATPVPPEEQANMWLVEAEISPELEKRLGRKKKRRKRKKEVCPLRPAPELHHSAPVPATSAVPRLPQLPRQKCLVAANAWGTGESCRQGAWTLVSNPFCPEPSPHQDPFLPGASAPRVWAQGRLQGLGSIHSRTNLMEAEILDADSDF
Protein smoothened (Mus musculus), sequence (P56726 whole entry): as above
T1 sequence (P28482 whole entry): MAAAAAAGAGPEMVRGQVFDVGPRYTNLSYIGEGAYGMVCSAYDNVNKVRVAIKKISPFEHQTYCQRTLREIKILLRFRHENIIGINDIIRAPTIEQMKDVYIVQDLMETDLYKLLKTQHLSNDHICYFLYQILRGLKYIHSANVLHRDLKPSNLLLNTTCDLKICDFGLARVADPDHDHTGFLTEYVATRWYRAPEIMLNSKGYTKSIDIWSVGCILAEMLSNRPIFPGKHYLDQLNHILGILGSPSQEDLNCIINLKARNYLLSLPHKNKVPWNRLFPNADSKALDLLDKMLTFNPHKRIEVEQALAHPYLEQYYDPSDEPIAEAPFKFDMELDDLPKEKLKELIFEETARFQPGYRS

| SMILES | inhibition [1] | inhibition [2] | IC50 [3] | fold change (FC) [4] | IC50 [5] | IC50 [6] |
| --- | --- | --- | --- | --- | --- | --- |
| Cc1c(-c2ccnn2C)nnc(N2CCC(NC(=O)Nc3ccc(Oc4nc(NC(C)C)ncc4Cl)cc3)CC2)c1C | 5.6% |  |  |  |  |  |
| Cc1c(-c2ccnn2C)nnc(N2CCC(NC(=O)Nc3ccc(Oc4nc(NC5CCOCC5)ncc4Cl)cc3)CC2)c1C | 80.9% | 89.9% | 12300 nM | 7.59 |  |  |
| Cc1c(-c2cnn(C)c2)nnc(N2CCC(NC(=O)Nc3ccc(Oc4nc(NC5CCOCC5)ncc4Cl)cc3)CC2)c1C |  |  |  |  | 409 nM | 41 nM |
| Cc1c(-c2ccnn2C)nnc(N2CCC(NC(=O)Nc3ccc(Sc4nc(NC5CCOCC5)ncc4Cl)cc3)CC2)c1C | 91.2% |  | 2170 nM | 1.33 | 17.6 nM |  |
| Cc1c(-c2ccnn2C)nnc(N2CCC(NC(=O)Nc3ccc(Oc4nc(Nc5ccnn5C)ncc4Cl)cc3)CC2)c1C | 1.1% |  |  |  |  |  |
| Cc1c(-c2ccnn2C)nnc(N2CCC(NC(=O)Nc3ccc(Oc4nc(Nc5cnn(C)c5)ncc4Cl)cc3)CC2)c1C | 46% |  |  |  | 17.8 nM |  |
| O=C(Nc1ccc2[nH]nc(-c3ccncc3)c2c1)[C@@H]1CCN(CC(=O)N2CCN(c3ccc(-c4ncccn4)cc3)CC2)C1 |  |  | 1630 nM |  |  |  |
| Cc1c(-c2ccnn2C)nnc(N2CCC(NC(=O)Nc3ccc(Nc4nc(NC5CCOCC5)ncc4Cl)cc3)CC2)c1C | 36.9% |  |  |  | 63.9 nM |  |
| Cn1cc(-c2ccc(N3CCC(NC(=O)Nc4ccc(Oc5nc(NC6CCOCC6)ncc5Cl)cc4)CC3)nn2)cn1 |  |  |  |  | > 1000 nM | 164 nM |
| Cc1c(-c2ccnn2C)nnc(N2CCC(NC(=O)Nc3ccc(Oc4nc(NC5CCOCC5)ncc4C(F)(F)F)cc3)CC2)c1C | 85% |  |  |  | 190 nM |  |
| Cc1c(-c2ccnn2C)nnc(N2CCC(NC(=O)c3ccc(NC(=O)c4ccnc(NC5CCOCC5)n4)cc3C(F)(F)F)CC2)c1C |  | 68.2% |  |  |  | 3320 nM |
| CN(C(=O)c1ccc(F)cc1C(F)(F)F)C1CCN(c2nnc(-c3ccnn3C)c3ccccc23)CC1 [TALADEGIB] |  |  | > 50000 nM |  | 1.18 nM |  |
| Cc1c(-c2ccnn2C)nnc(N2CCC(NC(=O)Nc3ccc(Oc4nc(Nc5ccn(C)n5)ncc4Cl)cc3)CC2)c1C | 6.6% |  |  |  |  |  |
| Cn1nccc1-c1ccc(N2CCC(NC(=O)Nc3ccc(Oc4nc(NC5CCOCC5)ncc4Cl)cc3)CC2)nn1 | 46.4% | 68.5% |  |  |  |  |
| Cc1c(-c2ccnn2C)nnc(N2CCC(NC(=O)Nc3ccc(Sc4nc(NC5CCOCC5)ncc4C(F)(F)F)cc3)CC2)c1C | 84.2% |  | 1450 nM | 0.89 | 155 nM |  |
| Cc1cnc(NC2CCOCC2)nc1Oc1ccc(NC(=O)NC2CCN(c3nnc(-c4ccnn4C)c(C)c3C)CC2)cc1 | 60.7% |  |  |  | 150 nM |  |
| Cc1c(-c2ccnn2C)nnc(N2CCC(NC(=O)Nc3ccc(Oc4ccnc(NC5CCOCC5)n4)cc3)CC2)c1C |  | 90.4% |  |  |  | 1320 nM |

— ChEMBL document CHEMBL5096217, “Design, synthesis and biological evaluation of novel 4-aminopiperidine derivatives as SMO/ERK dual inhibitors” (Bioorg Med Chem, 2022)
